The values that follow come from ChEMBL document CHEMBL1122382, “An evaluation of certain chain-extended analogues of 9-beta-D-arabinofuranosyladenine for antiviral and cardiovascular activity” (1983).

The subject of assay [1] is Human alphaherpesvirus 1. Put plainly: Virus rating (VR) which is the weighted measurement of in vitro antiviral activity, based on the inhibition of virus-induced cytopathogenic effects. VR > 1, active. In kind it is functional.
Assay [2] deals with Human alphaherpesvirus 1. Put plainly: Antiviral activity against herpes simplex virus type 1 (strain 377). In kind it is functional. To be noted: read-out: ID50 (the source's name).
Assay [3] has as its system Canis familiaris. The experiment in a line: Compound was evaluated for the cardiovascular activity, expressed as maximum percent response achieved with standard (administered intravenously at a dose of 0.10 mg/kg) at a dose of 1.0 mg/kg of compound. Format: functional, Canis lupus familiaris, Heart.
Assay [4] has as its system Human alphaherpesvirus 1. Put plainly: Compound was evaluated for virus rating (VR) which is the weighted measurement of in vitro antiviral activity, based on the inhibition of HSV-1 virus-induced cytopathogenic effects. VR = 0.5-0.9 indicates marginal activity. Format: functional.
Assay [5] is described as follows: Compound was evaluated for antiviral activity of the compound, expressed as ID50 for the inhibition of cellular DNA and protein synthesis in wild-type cells. To be noted: read-out: ID50 (the source's name). Format: functional.
The nature of assay [6]: Compound was evaluated for in vitro therapeutic index ratio of the ID50 for inhibition of cellular DNA and protein synthesis to the ID50 for inhibition of virus replication. In kind it is functional.
Assay [7] deals with Ara-A. The experiment in a line: Compound was evaluated for antiviral activity of the compound, expressed as ID50 for the inhibition of cellular DNA and protein synthesis in ara-A resistant cells. Format: functional. Conditions: Homo sapiens; read-out: ID50 (the source's name).
Assay [8] has as its system Human alphaherpesvirus 1. Put plainly: Antiviral activity against herpes simplex virus type 1 (strain HF). Format: functional. Conditions: read-out: ID50 (the source's name).
The subject of assay [9] is Human alphaherpesvirus 1. The experiment in a line: Virus rating (VR) which is the weighted measurement of in vitro antiviral activity, based on the inhibition of HSV-1 virus-induced cytopathogenic effects. VR > 1, active. In kind it is functional.
The test system of assay [10] is Canis familiaris. Put plainly: Compound was evaluated for the cardiovascular activity, expressed as maximum % response achieved with standard (administered intravenously at a dose of 0.10 mg/kg) at a dose of 1.0 mg/kg of the compound. Format: functional, Canis lupus familiaris, Heart.
For assay [11], the system named is Human alphaherpesvirus 1. The experiment in a line: Compound was evaluated for virus rating (VR) which is the weighted measurement of in vitro antiviral activity, based on the inhibition of HSV-1 virus-induced cytopathogenic effects. VR > 1, active. Format: functional.
The test system of assay [12] is Ara-A. The experiment in a line: Compound was evaluated for antiviral activity expressed as ID50 for the inhibition of cellular DNA and protein synthesis in ara-A resistant cells. Conditions: Homo sapiens; read-out: ID50 (the source's name). In kind it is functional.
Assay [13] is described as follows: Compound was evaluated for antiviral activity expressed as ID50 for the inhibition of cellular DNA and protein synthesis in wild-type cells. In kind it is functional. To be noted: read-out: ID50 (the source's name).

`NC(=O)CC[C@H]1OC(n2cnc3c(N)ncnc32)[C@@H](O)[C@@H]1O` (some centres undefined): the VR in [1] was found to be 1.6. In addition, in assay [2], the IC50 is 574 µM. The same compound registered a Response in assay [3] of 10%.

Take `Nc1ncnc2c1ncn2C1O[C@H](CCC(=O)O)[C@@H](O)[C@@H]1O` (some centres undefined): the VR in assay [4] stood at 0.3.

Consider `Nc1ncnc2c1ncn2C1O[C@H](CCCO)[C@@H](O)[C@@H]1O` (some centres undefined), for which the IC50 was 1880 µM in [5], 1510 µM in assay [7], 643 µM in assay [2] and 525 µM in [8]. Further, in [6], the Ratio stood at 2.1. Also, in [9], the VR stood at 1.5.

Consider `CCOC(=O)CC[C@H]1OC(n2cnc3c(N)ncnc32)[C@@H](O)[C@@H]1O` (some centres undefined), for which the IC50 in assay [2] was determined as 729 µM. In addition, the Response in [10] turned out to be 39%. In addition, the VR in assay [11] was determined as 1.

With `Nc1ncnc2c1ncn2[C@@H]1O[C@H](CO)[C@@H](O)[C@H]1O` [ADENOSINE], the IC50 in assay [12] is 242 µM; in [2], 22 µM; in [8], 42 µM; in assay [13], 2.4 µM. Besides, the Ratio in [6] came out at 3.1. For the same compound, the VR in assay [1] worked out at 2.5.
